In ChEMBL document CHEMBL1909046, “DrugMatrix in vitro pharmacology data”:

How the values were obtained:
[1] = target: T1, Angiotensin-converting enzyme (Oryctolagus cuniculus, UniProt P12822); type: tissue-based, Lung;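 also: enzymatic inhibition of angiotensin-converting enzyme measured with FAPGG as the substrate; in other assays of this panel Not Active means under 50% inhibition at 10 µM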
T1 sequence (P12822 whole entry): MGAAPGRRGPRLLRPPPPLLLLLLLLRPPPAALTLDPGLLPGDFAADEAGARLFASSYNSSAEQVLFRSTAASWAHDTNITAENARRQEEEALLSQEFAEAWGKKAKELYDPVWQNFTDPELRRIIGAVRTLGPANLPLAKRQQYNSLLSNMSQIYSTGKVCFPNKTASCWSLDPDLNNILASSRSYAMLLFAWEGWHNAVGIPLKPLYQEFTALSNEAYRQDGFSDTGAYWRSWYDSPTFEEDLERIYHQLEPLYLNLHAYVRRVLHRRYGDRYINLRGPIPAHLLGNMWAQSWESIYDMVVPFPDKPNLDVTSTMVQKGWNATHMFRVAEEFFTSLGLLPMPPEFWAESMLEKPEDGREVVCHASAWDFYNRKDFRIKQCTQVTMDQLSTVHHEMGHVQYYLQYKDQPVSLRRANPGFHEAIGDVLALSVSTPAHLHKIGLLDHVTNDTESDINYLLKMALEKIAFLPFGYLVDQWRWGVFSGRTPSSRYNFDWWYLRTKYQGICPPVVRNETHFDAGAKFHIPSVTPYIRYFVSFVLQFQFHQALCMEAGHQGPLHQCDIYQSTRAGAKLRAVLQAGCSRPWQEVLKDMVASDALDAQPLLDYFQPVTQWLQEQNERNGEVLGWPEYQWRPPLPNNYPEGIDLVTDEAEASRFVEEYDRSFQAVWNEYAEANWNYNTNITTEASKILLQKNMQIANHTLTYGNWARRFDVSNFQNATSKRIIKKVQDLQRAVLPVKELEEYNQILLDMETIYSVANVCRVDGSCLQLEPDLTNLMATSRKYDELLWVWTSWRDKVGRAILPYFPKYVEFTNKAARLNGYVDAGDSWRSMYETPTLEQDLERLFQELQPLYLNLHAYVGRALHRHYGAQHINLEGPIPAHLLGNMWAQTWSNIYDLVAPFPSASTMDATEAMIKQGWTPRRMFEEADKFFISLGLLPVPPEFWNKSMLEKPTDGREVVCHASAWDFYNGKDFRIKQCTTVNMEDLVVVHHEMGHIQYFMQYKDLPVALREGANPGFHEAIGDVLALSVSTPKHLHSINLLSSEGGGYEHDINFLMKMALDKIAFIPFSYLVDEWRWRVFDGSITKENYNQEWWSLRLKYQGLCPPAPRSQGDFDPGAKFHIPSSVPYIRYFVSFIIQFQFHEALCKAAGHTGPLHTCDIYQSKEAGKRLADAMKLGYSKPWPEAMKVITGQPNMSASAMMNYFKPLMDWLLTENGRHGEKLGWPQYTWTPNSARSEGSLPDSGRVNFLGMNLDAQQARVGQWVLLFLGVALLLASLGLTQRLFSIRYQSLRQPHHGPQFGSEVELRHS

Cytochrome P450 1A2 = target: T2, Cytochrome P450 1A2 (Homo sapiens, UniProt P05177); conditions: bti-tn-5b1-4; also: in other assays of this panel Not Active means under 50% inhibition at 10 µM
T2 sequence (P05177 whole entry): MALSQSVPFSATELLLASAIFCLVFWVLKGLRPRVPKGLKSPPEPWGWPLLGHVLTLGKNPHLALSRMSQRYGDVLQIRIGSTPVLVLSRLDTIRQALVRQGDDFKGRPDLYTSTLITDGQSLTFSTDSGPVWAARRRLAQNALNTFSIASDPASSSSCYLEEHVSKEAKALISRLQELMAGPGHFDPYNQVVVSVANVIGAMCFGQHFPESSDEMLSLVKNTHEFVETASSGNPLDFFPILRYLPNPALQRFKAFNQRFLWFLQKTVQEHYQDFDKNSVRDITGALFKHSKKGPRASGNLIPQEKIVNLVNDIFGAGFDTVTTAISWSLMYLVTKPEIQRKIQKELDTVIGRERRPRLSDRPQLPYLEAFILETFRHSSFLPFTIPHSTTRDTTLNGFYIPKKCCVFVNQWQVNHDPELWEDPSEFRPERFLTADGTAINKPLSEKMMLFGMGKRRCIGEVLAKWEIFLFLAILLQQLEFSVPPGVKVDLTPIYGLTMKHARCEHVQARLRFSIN

[2] = target: T3, Alpha-1D adrenergic receptor (Homo sapiens, UniProt P25100); type: cell membranes, HEK293, Membrane; conditions: hek293; also: in other assays of this panel Not Active means under 50% inhibition at 10 µM
T3 sequence (P25100 whole entry): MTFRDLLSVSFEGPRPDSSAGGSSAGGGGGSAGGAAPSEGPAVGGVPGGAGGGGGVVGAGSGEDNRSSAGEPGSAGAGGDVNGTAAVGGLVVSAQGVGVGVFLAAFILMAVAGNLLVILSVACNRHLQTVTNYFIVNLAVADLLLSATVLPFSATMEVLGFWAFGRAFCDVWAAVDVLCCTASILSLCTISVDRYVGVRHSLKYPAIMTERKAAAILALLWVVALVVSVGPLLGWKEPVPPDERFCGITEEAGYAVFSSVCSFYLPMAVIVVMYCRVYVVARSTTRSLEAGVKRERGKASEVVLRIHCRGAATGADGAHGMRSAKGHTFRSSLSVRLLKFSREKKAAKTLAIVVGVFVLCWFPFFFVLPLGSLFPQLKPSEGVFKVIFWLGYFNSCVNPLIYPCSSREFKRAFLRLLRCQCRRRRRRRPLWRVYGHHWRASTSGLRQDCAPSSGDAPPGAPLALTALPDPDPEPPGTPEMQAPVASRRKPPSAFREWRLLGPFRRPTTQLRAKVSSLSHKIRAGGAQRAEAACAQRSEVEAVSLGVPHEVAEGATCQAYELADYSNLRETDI

[3] = target: 5-hydroxytryptamine receptor 6 (Homo sapiens, UniProt P50406); type: cell membranes, HeLa, Membrane; conditions: hela; also: in other assays of this panel Not Active means under 50% inhibition at 10 µM
D(4) dopamine receptor = target: T4, D(4) dopamine receptor (Homo sapiens, UniProt P21917); assay: DRUGMATRIX: Dopamine D4.2 radioligand binding (ligand: [3H] Spiperone); type: cell membranes, CHO-K1, Membrane; conditions: cho-k1; Not Active = under 50% inhibition at 10 µM
T4 sequence (P21917 whole entry): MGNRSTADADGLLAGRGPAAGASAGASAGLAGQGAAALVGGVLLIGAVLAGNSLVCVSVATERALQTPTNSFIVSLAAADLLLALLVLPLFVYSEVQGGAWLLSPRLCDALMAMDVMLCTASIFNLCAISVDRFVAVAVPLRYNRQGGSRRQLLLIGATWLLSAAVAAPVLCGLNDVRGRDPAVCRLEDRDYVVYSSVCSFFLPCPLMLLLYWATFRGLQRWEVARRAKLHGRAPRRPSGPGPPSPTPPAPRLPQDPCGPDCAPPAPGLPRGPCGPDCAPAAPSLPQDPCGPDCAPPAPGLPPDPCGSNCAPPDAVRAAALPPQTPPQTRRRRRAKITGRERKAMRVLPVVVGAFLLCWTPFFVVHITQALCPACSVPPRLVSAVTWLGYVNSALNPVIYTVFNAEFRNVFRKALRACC

Sequence of 5-hydroxytryptamine receptor 6 (P50406 whole entry): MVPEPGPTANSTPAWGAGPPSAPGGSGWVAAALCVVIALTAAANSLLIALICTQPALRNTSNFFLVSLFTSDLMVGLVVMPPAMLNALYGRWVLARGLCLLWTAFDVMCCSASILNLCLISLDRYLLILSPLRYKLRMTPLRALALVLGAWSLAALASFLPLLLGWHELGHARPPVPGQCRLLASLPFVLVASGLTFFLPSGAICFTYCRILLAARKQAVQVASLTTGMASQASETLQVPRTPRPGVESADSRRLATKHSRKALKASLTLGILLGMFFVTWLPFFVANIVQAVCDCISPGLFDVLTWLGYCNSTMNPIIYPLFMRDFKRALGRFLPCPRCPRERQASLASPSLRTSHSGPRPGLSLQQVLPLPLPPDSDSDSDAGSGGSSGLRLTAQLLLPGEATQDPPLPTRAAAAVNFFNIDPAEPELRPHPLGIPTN

C[C@]12CCC(=O)C=C1CC[C@@H]1[C@@H]2CC[C@@]2(C)[C@H]1CC[C@]2(C)O [METHYLTESTOSTERONE]
Not Active: IC50 [1] | IC50 (Cytochrome P450 1A2) | Ki (Cytochrome P450 1A2) | IC50 [2] | IC50 [3] | IC50 (D(4) dopamine receptor)

Cc1ccccc1N1C(=O)c2cc(S(N)(=O)=O)c(Cl)cc2NC1C (stereo unspecified) [METOLAZONE]
Not Active: IC50 [1] | IC50 (Cytochrome P450 1A2) | Ki (Cytochrome P450 1A2) | IC50 [2] | IC50 [3] | IC50 (D(4) dopamine receptor)

COCCc1ccc(OCC(O)CNC(C)C)cc1 (stereo unspecified) [METOPROLOL]
Not Active: IC50 [1] | IC50 (Cytochrome P450 1A2) | Ki (Cytochrome P450 1A2) | IC50 [2] | IC50 [3] | IC50 (D(4) dopamine receptor)

CCn1cc(C(=O)O)c(=O)c2cc(F)c(N3CCNCC3)cc21 [NORFLOXACIN]
Not Active: IC50 [1] | IC50 (Cytochrome P450 1A2) | Ki (Cytochrome P450 1A2) | IC50 [2] | IC50 [3] | IC50 (D(4) dopamine receptor)

NC1=NC(=O)C(c2ccccc2)O1 (stereo unspecified) [PEMOLINE]
Not Active: IC50 [1] | IC50 (Cytochrome P450 1A2) | Ki (Cytochrome P450 1A2) | IC50 [2] | IC50 [3] | IC50 (D(4) dopamine receptor)

Nc1nc2c(ncn2CCC(CO)CO)c(=O)[nH]1 [PENCICLOVIR]
Not Active: IC50 [1] | IC50 (Cytochrome P450 1A2) | Ki (Cytochrome P450 1A2) | IC50 [2] | IC50 [3] | IC50 (D(4) dopamine receptor)

C=C(C)C1(O)OC(=O)C=C1OC (stereo unspecified) [PENICILLIC ACID]
Not Active: IC50 [1] | IC50 (Cytochrome P450 1A2) | Ki (Cytochrome P450 1A2) | IC50 [2] | IC50 [3] | IC50 (D(4) dopamine receptor)

C1CCC(C(CC2CCCCN2)C2CCCCC2)CC1 (stereo unspecified) [PERHEXILINE]
Not Active: IC50 [1] | IC50 (Cytochrome P450 1A2) | Ki (Cytochrome P450 1A2) | IC50 [2] | IC50 [3] | IC50 (D(4) dopamine receptor)

CCOc1ccc(NC(C)=O)cc1 [PHENACETIN]
Not Active: IC50 [1] | IC50 (Cytochrome P450 1A2) | Ki (Cytochrome P450 1A2) | IC50 [2] | IC50 [3] | IC50 (D(4) dopamine receptor)

CNNCc1ccc(C(=O)NC(C)C)cc1 [PROCARBAZINE]
Not Active: IC50 [1] | IC50 (Cytochrome P450 1A2) | Ki (Cytochrome P450 1A2) | IC50 [2] | IC50 [3] | IC50 (D(4) dopamine receptor)

CC(O)CO (stereo unspecified) [PROPYLENE GLYCOL]
Not Active: IC50 [1] | IC50 (Cytochrome P450 1A2) | Ki (Cytochrome P450 1A2) | IC50 [2] | IC50 [3] | IC50 (D(4) dopamine receptor)

CADMIUM ACETATE
Not Active: IC50 [1] | Ki [1] | IC50 (Cytochrome P450 1A2) | Ki (Cytochrome P450 1A2) | IC50 [2] | Ki [2] | IC50 [3] | Ki [3] | IC50 (D(4) dopamine receptor) | Ki (D(4) dopamine receptor)

LEAD (II) ACETATE
Not Active: IC50 [1] | Ki [1] | IC50 (Cytochrome P450 1A2) | Ki (Cytochrome P450 1A2) | IC50 [2] | Ki [2] | IC50 [3] | Ki [3] | IC50 (D(4) dopamine receptor) | Ki (D(4) dopamine receptor)

LIPOPOLYSACCHARIDE E. COLI O55:B5
Not Active: IC50 [1] | Ki [1] | IC50 (Cytochrome P450 1A2) | Ki (Cytochrome P450 1A2) | IC50 [2] | Ki [2] | IC50 [3] | Ki [3] | IC50 (D(4) dopamine receptor) | Ki (D(4) dopamine receptor)
